# From patent US20100210635A1, “RENIN INHIBITORS” (Takeda Pharmaceutical Company Limited, priority 2006, published 2010)
# Target: T1, Recombinant human renin (Homo sapiens, UniProt P00797)
# T1 construct: isolate the active form (residues 67-406); made in house; host or cells: FreeStyle 293-F cells (transient expression of pcDNA3.1(+)/hREN)
# T1 sequence (P00797 67-406): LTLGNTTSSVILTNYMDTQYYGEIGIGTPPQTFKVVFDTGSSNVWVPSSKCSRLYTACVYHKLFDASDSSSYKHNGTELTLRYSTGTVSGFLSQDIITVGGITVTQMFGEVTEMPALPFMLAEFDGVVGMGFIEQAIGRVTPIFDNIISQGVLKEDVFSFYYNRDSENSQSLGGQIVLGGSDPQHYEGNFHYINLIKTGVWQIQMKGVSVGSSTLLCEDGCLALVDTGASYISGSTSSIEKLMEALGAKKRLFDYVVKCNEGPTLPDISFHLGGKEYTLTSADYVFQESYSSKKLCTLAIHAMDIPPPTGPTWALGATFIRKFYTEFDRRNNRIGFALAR
# Test: In vitro enzymatic activity assay of Renin inhibitors (fluorescence, QXL520/HiLyteFluo488 peptide substrate)
# Assay type: biochemical
# Conditions: not given
# Summary of the method: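 Recombinant human renin (active form, residues 67-406; 3 nM final) pre-incubated 10 min at 37 °C with compounds in Hepes buffer pH 7.4 with 0.1 mg/ml BSA (optionally plus 2% BSA), 5% DMSO. Reaction started with 1 μM FRET peptide substrate; fluorescence (ex 485/em 538 nm) change over 1 h at 37 °C versus vehicle gives % inhibition, and pIC50/IC50 come from curve fitting.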
row,SMILES,IC50
1,"CN1CCN(C(=O)Oc2ccc(C[C@@H]3CNCCN3C(=O)CCc3ccccc3Oc3ccccc3)cc2)CC1 [Example 72, (R)-4-((1-(3-(2-phenoxyphenyl)propanoyl)piperazin-2-yl)methyl)-phenyl 4-methylpiperazine-1-carboxylate]",0.5 to 5 µM

# Same assay, conditions: recombinant human renin 3 nM, 1 μM substrate, 37° C., pH 7.4; values given as ranges; read-out: IC50 of Exemplified Compounds Against Renin
row,IC50,SMILES
1,0.5 to 5 µM,"CC(=O)NCc1cc(C(F)(F)F)ccc1Oc1cc(C)ccc1CCC(=O)N1CCNC[C@H]1Cc1ccccc1 [Example 45, (R)—N-(2-(2-(3-(2-benzylpiperazin-1-yl)-3-oxopropyl)-5-methylphenoxy)-5-(trifluoromethyl)benzyl)acetamide]"
2,0.5 to 5 µM,"O=C(CC(Cc1ccccc1)c1ccco1)N1CCNC[C@H]1Cc1ccccc1 (stereo partly drawn) [Example 16, 1-((R)-2-Benzylpiperazin-1-yl)-3-(furan-2-yl)-4-phenylbutan-1-one]"
3,0.5 to 5 µM,"NC(=O)c1cccc(Oc2ccccc2CCC(=O)N2CCNC[C@H]2Cc2ccccc2)c1 [Example 37, (R)-3-(2-(3-(2-benzylpiperazin-1-yl)-3-oxopropyl)phenoxy)benzamide]"
4,0.5 to 5 µM,"O=C(CCc1nc(-c2ccccc2)c(-c2ccccc2)o1)N1CCNC[C@H]1Cc1ccccc1 [Example 63, (R)-1-(2-benzylpiperazin-1-yl)-3-(4,5-diphenyloxazol-2-yl)propan-1-one]"
5,5 to 50 µM,"O=C(COc1cccc2ccccc12)N1CCNC[C@H]1Cc1ccccc1 [Example 15, (R)-1-(2-Benzylpiperazin-1-yl)-2-(naphthalen-1-yloxy)ethanone]"
6,0.5 to 5 µM,"CC(=O)c1cccc(Oc2ccccc2CCC(=O)N2CCNC[C@H]2Cc2ccccc2)c1 [Example 36, (R)-3-(2-(3-Acetylphenoxy)phenyl)-1-(2-benzylpiperazin-1-yl)propan-1-one]"
7,< 0.5 µM,"CC(=O)NCc1cc(C)ccc1Oc1ccccc1CCC(=O)N1CCNC[C@H]1Cc1ccccc1 [Example 40, (R)—N-(2-(2-(3-(2-benzylpiperazin-1-yl)-3-oxopropyl)phenoxy)-5-methylbenzyl)acetamide]"
8,0.5 to 5 µM,"O=C(CCc1ccccc1Oc1cccc(CO)c1)N1CCNC[C@H]1Cc1ccccc1 [Example 35, (R)-1-(2-Benzylpiperazin-1-yl)-3-(2-(3-(hydroxymethyl)phenoxy)phenyl)propan-1-one]"
9,0.5 to 5 µM,"O=C(Cc1ccccc1-c1ccccc1Cl)N1CCNC[C@H]1Cc1ccccc1 [Example 11, 1-((R)-2-Benzylpiperazin-1-yl)-2-(2′-chlorobiphenyl-2-yl)ethanone]"
10,< 0.5 µM,"CC(=O)NCCc1ccccc1Cc1ccccc1CCC(=O)N1CCNC[C@H]1Cc1ccc(-c2nnn[nH]2)cc1 [Example 94, (R)—N-(2-(2-(3-(2-(4-(1H-tetrazol-5-yl)benzyl)piperazin-1-yl)-3-oxopropyl)benzyl)phenethyl)acetamide]"
11,> 50 µM,"COc1cc(CCC(=O)N2CCNC[C@H]2Cc2ccccc2)ccc1OC(C)=O [Example 59, (R)-4-(3-(2-benzylpiperazin-1-yl)-3-oxopropyl)-2-methoxyphenyl acetate]"
12,< 0.5 µM,"NC(=O)CCc1ccccc1Oc1ccccc1CCC(=O)N1CCNC[C@H]1Cc1ccccc1 [Example 83, (R)-3-(2-(2-(3-(2-benzylpiperazin-1-yl)-3-oxopropyl)phenoxy)phenyl)propanamide]"
13,0.5 to 5 µM,"O=C(CCC(=O)N1CCNC[C@H]1Cc1ccccc1)N(c1ccccc1)c1ccccc1 [Example 60, (R)-4-(2-benzylpiperazin-1-yl)-4-oxo-N,N-diphenylbutanamide]"
14,0.5 to 5 µM,"COC(=O)COc1ccc(C[C@@H]2CNCCN2C(=O)CCc2ccccc2Oc2ccccc2)cc1 [Example 69, (R)-methyl 2-(4-((1-(3-(2-phenoxyphenyl)propanoyl)piperazin-2-yl)methyl)phenoxy)acetate]"
